The test system of experiment [1] is pancreatic cancer cells (BXPC-3 and MiaPaca-2). The experiment in a line: MTS cell viability assay, pancreatic cancer cell lines. In kind it is cell-based, human. As for the experimental part:
FIG. 16. Anticancer effect of BKAc-Puro on pancreatic cell lines. The cell lines were treated with DMSO (vehicle), BKAc-Puro (54 μM), or Puro (4.2 μM) for 5 d followed by MTS assay. Normal Eph4 (non-pancreatic) cells are shown as control. Data represent mean values of triplicate mesurements±s.d.
FIG. 18. Selective cytotoxicity by BKAc-Puro on pancreatic cancer cells. Pancreatic cancer (BXPC-3 and Miapaca-2), colon cancer (HCT116 as a positive control sensitive to the drug), and normal colon (CCD841-CoN as a negative control) cells were grown and analyzed as in FIG. 13. […]
Cell number was determined by cell counting using improved Neubauer hemacytometer. Cell viability was calculated as the number of viable cells divided by the total number of cells using Trypan Blue Stain (Invitrogen) to distinguish non-viable cells. […] After additional 2-3 h incubation, the absorbance of the formazan at 490 nm was measured by the microplate reader. […] Determination of non-viable cells using PI staining was performed by adding 1 μg/ml of PI solution (Sigma) to the cell culture, prior to the examination under fluorescence microscopy (Axiovert 3, Carl Zeiss) through a×32 objective equipped with a digital imaging processor (Infinity 3, Lumenera).

A further experiment relates to HCT116 xenograft tumors. In kind it is in vivo. The method, then: FIG. 29. In vivo anticancer efficacy of Boc-KAc-Puro. (a) Tumor growth in HCT116 xenograft model. Animals were treated with acidified saline control or Boc-KAc-Puro (50 or 150 mg/kg). Values are mean±s.d. (n=5 mice per group). ***P<0.001 compared to the control group. P=0.000716 (50 mg/kg), P=0.000349 (150 mg/kg) at 10 d. (b) Body weight change during the treatment in a was monitored as a sign of general animal health. Values are mean±s.d. (c) Tumor growth in HT29 xenograft model. Animals were treated with acidified saline control or Boc-KAc-Puro (150 mg/kg). Values are mean±s.d. (n=5 mice per group). ***P<0.001 compared to the control group. P=0.000514 (150 mg/kg) at 10 d. (d) Body weight change during the treatment in c was monitored as a sign of general animal health. Values are mean±s.d. (e) Levels of Puro-incorporated proteins were monitored by immunoblotting. Animals bearing HT29 xenograft tumor were given daily intraperitoneal administration of the prodrug at 150 mg/kg/dose for 3 d, followed by preparation of tissue lysates. The lower panel (anti-α-Tubulin) served as a loading control.
Athymic mice (NCr, female, age 6 weeks, Taconic) were subcutaneously injected with 5×10^5 cells (HCT116 or HT29) into the lower flank, then treatment was initiated when small palpable tumors had developed (>3 mm in diameter). […] Tumor volumes and body weight were monitored daily. […] Data were expressed as mean±s.d. […]

Each structure is given as a SMILES string.

Take `COc1ccc(C[C@H](NC(=O)[C@H](CCCCNC(C)=O)NC(=O)OC(C)(C)C)C(=O)N[C@H]2[C@@H](O)[C@H](n3cnc4c(N(C)C)ncnc43)O[C@@H]2CO)cc1` [BKAc-Puro, N-[3′-(α-Amino-p-methoxyhydrocinnamamido)-3′-deoxy-N,N-dimethyldenosinyl]-N-α-(t-butoxycarbonyl)-N-ε-acetyl-L-lysineamide]: in experiment [1] (54 μM, 5 d, MTS), the “anticancer effect on cell viability” value is reported as “effective”. In experiment [1] (cells known to be resistant to 5-FU and Gemicitabine), the cell death result is on record as “effectively caused cell death”. Further, the tumor growth entry in the experiment on HCT116 xenograft tumors (50 and 150 mg/kg/dose daily intraperitoneally for 10 d) is listed as “dose-dependent inhibition of tumor growth”. In the experiment on HCT116 xenograft tumors (P<0.001, 50 and 150 mg/kg, 10 d), the “tumor mass vs acidified saline control” value is listed as “significantly smaller tumor mass”.

These data come from US9872919B2, “Prodrugs for selective anticancer therapy” (THE RESEARCH FOUNDATION FOR THE STATE UNIVERSITY OF NEW YORK, priority 2012, dated 2018).
